From US8080555B2, “Purine derivatives and their use for treatment of autoimmune diseases” (Prometic Biosciences Inc., priority 2005, dated 2011)
Structures can show the parent of a compound that is named as a salt.

Experiments:
Fc portion of human IgG = biological target: T1, Fc portion of human IgG; test: Competitive protein A binding ELISA (inhibition of binding of protein A to human IgG); conditions: HRP-human IgG, assay in PBS, read-out: IC50 (μM) Assay in PBS, concentration which inhibits 50% binding of protein A
T1 construct: fused on or other part: Horseradish peroxidase chemically conjugated to the IgG (detection label)
Description: As described above, this assay evaluates the ability of the exemplified compounds to mimic protein A. Such compounds can bind to the Fc portion of human IgG as ascertained by the inhibition of binding of protein A to human IgG. The competitive protein A binding ELISA assay was performed on a 96-well plate MAXISORP® surface to enhance the binding of protein A to the bottom of the plate. The wells were coated with 100 μL of protein A (0.8 μg) and incubated overnight at 4° C. After incubation, unbound protein A was removed by three washes with phosphate buffer saline (PBS). The plate was then incubated with 100 μL/well of a 2% solution of bovine serum albumin (BSA) for 1 h at 37° C. to block nonspecific protein binding. After incubation, the plate was washed three times with PBS. 50 μL of compound or protein A, diluted in PBS or PBS-20% DMSO at appropriate concentration, were added to the wells followed by addition of 50 μL of peroxidase-conjugated human IgG (HRP-IgG). After 1 h incubation at 37° C., the plate was washed three times with PBS to remove unbound HRP-IgG. Bound HRP-IgG was detected by incubation with 100 μL of 2,2′-azino-di[3-ethylbenzthiazoline sulfonate] diammonium salt crystals (ABTS) solution for 20 min in the dark at room temperature. The plate was then read at 405 nm on a BIO-TEK® EL 800 Universal Microplate Reader. Data was analyzed in a MICROSOFT® EXCEL® spreadsheet and the concentration of compound which inhibits 50% binding of protein A (IC50) was calculated using PRISM® software, as shown in Table 1.

[1] = system: LPS-induced TNFα production in J774A-1 cells; test: LPS-induced TNFα production in J774A-1 cells, TNFα by ELISA; format: cell-based; conditions: Mus musculus, J774.A1, 24 h, read-out: IC50 (μM), concentration which inhibits 50% of TNFα production
Description: The effect of compounds on TNFα production was measured by ELISA using J774-1 cells stimulated by lipopolysaccharide (LPS). J774-1 cells were cultured in the presence or absence of LPS and compound. Cells were cultured at 37° C. for 24 h and thereafter the supernatants were collected for the determination of the concentration of TNFα by ELISA as recommended by the manufacturer (BD Biosciences). Data was analyzed in a MICROSOFT® EXCEL® spreadsheet and the concentration of compound which inhibits 50% of TNFα production (IC50) was calculated using PRISM® software, as shown in Table 2.

[2] = system: oxazolone-induced delayed-type hypersensitivity (DTH); test: Oxazolone-induced delayed-type hypersensitivity (DTH) in mice; format: in vivo; conditions: for Inflammation/Ear thickness (mm), Challenge 1 / Inflammation/Ear thickness (mm), Challenge 2: intravenous, 50 mg/kg day 0, 1 and 2; for Inflammation/Ear thickness (mm), Challenge 1: first challenge day 3; for Inflammation/Ear thickness (mm), Challenge 2: second challenge day 10
Description: Compounds were tested for their ability to treat oxazolone-induced delayed-type hypersensitivity (DTH) in mice. On day 0, mice were sensitized with 100 μL of oxazolone in 5% acetone. On day 0, 1 and 2, mice were treated by intravenous administration of the vehicle (control) or methotrexate (MTX; positive control) or the compound at 50 mg/kg. Mice were challenged with an application of 50 μL of oxazolone on the surface of the right ear (first challenge, day 3; second challenge, day 10). Ear thickness was measured on day 4 to day 7, and on day 11 to 14. Redness and crust formation was also observed. Mice were sacrificed on day 14. TDTH (CD4) cells play an important role in regulating the intensity of the DTH response.
The effect of oral administration of compound 1 was determined following the protocol described above with the exception that compound 1 was orally administered at 50 or 150 mg/kg from day 0 to day 13. The positive control was hydrocortisone.

[3] = system: Freund's adjuvant-induced arthritis (AIA); test: Freund's adjuvant-induced arthritis (AIA) in female Lewis rats; format: in vivo
Description: AIA was induced in female Lewis rats by the injection of lyophilized Mycobacterium butyricum suspended in mineral oil into the footpad. The development of arthritis was monitored over a 3 week period post-adjuvant injection. Inflammation peaks at day 3 following the adjuvant administration. Immune activation appears around day 14. Compounds were injected i.v. day-3, -2 and -1 pre-adjuvant injection and at day 10, 11 and 12 post-adjuvant injection. Body weight was recorded. The arthritis index, which is a measure of inflammation (edema), redness, and stiffness of the articulations, was used to monitor the development of the disease. The degree of arthritis was determined by measuring two perpendicular diameters of the ankles in the mediolateral and dorsoventral planes using a caliper. Joint circumference in millimeters is then calculated using a geometric formula. Both the incidence and severity of the arthritis was evaluated. Incidence is defined as the number of rats with clinical evidence of joint inflammation during the study period.
The effect of oral administration of compound 1 was determined following the protocol described above with the exception that compound 1 was orally administered at 50 mg/kg from day-3 to day 19. The positive control was indomethacin.

| Structure (SMILES) | IC50 (Fc portion of human IgG) [µM] | IC50 [1] [µM] | further results |
| --- | --- | --- | --- |
| Nc1ccc(CCn2cnc3c(Nc4cccc(N)c4)ncnc32)cc1 [Compound 1, N-{9-[2-(4-aminophenyl)ethyl]-9H-purin-6-yl}benzene-1,3-diamine dihydrochloride] | 1 | > 100 | potency compared to methotrexate in DTH ([2]; intravenous administration): equipotent to methotrexate; redness, crust formation, and ear swelling ([2]; intravenous administration): reduces; reduction of the inflammation as seen by lower ear thickness ([2]; intravenous administration): significant reduction; Inflammation/Ear thickness (mm), Challenge 1 [2]: 0.19 ± 0.06 mm; Inflammation/Ear thickness (mm), Challenge 2 [2]: 0.56 ± 0.12 mm; reduction of the inflammation as seen by lower ear thickness ([2]; oral, 50 or 150 mg/kg day 0 to day 13, challenges 1 and 2, FIG. 1): significant reduction; reduction in the severity of arthritis (inflammatory index) ([3]; intravenous injection, FIG. 2): up to 25%; reduction in the severity of arthritis (inflammatory index) ([3]; oral administration, FIG. 3): 10-30% |
| Nc1ccc(Cn2cnc3c(Nc4cccc(N)c4)ncnc32)cc1 [Compound 7, N-[9-(4-Amino-benzyl)-9H-purin-6-yl]-benzene-1,3-diamine] | 0.2 | > 100 |  |
| Nc1cccc(Nc2ncnc3c2ncn3CCc2ccc(F)cc2)c1 [Compound 14, N-{9-[2-(4-Fluoro-phenyl)-ethyl]-9H-purin-6-yl}-benzene-1,3-diamine] | 0.6 | > 50 |  |
| CC(C)(C)CNc1nc(Nc2cccc(N)c2)c2ncn(CCc3ccc(N)cc3)c2n1 [Compound 10, N6-(3-Amino-phenyl)-9-[2-(4-amino-phenyl)-ethyl]-N2-(2,2-dimethyl-propyl)-9H-purine-2,6-diamine] | 6 | 5.3 |  |
| Nc1cccc(Nc2nc(F)nc3c2ncn3CCc2ccc(OCc3ccccc3)cc2)c1 [Compound 9, N-{9-[2-(4-Benzyloxy-phenyl)-ethyl]-2-fluoro-9H-purin-6-yl}-benzene-1,3-diamine] | 7.1 | > 50 |  |
| CC(C)(C)Nc1nc(Nc2cccc(N)c2)c2ncn(CCc3ccc(N)cc3)c2n1 [Compound 6, N6-(3-Amino-phenyl)-9-[2-(4-amino-phenyl)-ethyl]-N2-tert-butyl-9H-purine-2,6-diamine] | 1.8 | 2.3 |  |
| Nc1cccc(CCn2cnc3c(Nc4cccc(N)c4)ncnc32)c1 [Compound 12, N-{9-[2-(3-Amino-phenyl)-ethyl]-9H-purin-6-yl}-benzene-1,3-diamine] | 52 | > 50 |  |
| Nc1ccc(CCn2cnc3c(Nc4cccc(N)c4)nc(NCC4CC4)nc32)cc1 [Compound 3, N6-(3-Amino-phenyl)-9-[2-(4-amino-phenyl)-ethyl]-N2-cyclopropylmethyl-9H-purine-2,6-diamine] | 0.7 | > 50 |  |
| Nc1ccc(CCn2cnc3c(Nc4cccc(N)c4)nc(NC4CCCC4)nc32)cc1 [Compound 13, N6-(3-Amino-phenyl)-9-[2-(4-amino-phenyl)-ethyl]-N2-cyclopentyl-9H-purine-2,6-diamine] | 0.2 | 6.2 |  |
| Nc1ccc(CCn2cnc3c(Nc4cccc(N)c4)nc(NC4CC4)nc32)cc1 [Compound 5, N6-(3-Amino-phenyl)-9-[2-(4-amino-phenyl)-ethyl]-N2-cyclopropyl-9H-purine-2,6-diamine] | 13 | 9.2 |  |
| Nc1ccc(CCn2cnc3c(Nc4cccc(N)c4)nc(NCCCCCCO)nc32)cc1 [Compound 4, 6-{6-(3-Amino-phenylamino)-9-[2-(4-amino-phenyl)-ethyl]-9H-purin-2-ylamino}-hexan-1-ol] | 4.8 | > 50 |  |
| Nc1ccc(CCn2cnc3c(Nc4cccc(N)c4)nc(NCCO)nc32)cc1 [Compound 8, 2-{6-(3-Amino-phenylamino)-9-[2-(4-amino-phenyl)-ethyl]-9H-purin-2-ylamino}-ethanol] | 64 | 11 |  |
| CC(C)CNc1nc(Nc2cccc(N)c2)c2ncn(CCc3ccc(N)cc3)c2n1 [Compound 11, N6-(3-Amino-phenyl)-9-[2-(4-amino-phenyl)-ethyl]-N2-isobutyl-9H-purine-2,6-diamine] | 22 | 11 |  |
| Nc1ccc(CCn2cnc3c(Nc4cccc(N)c4)nc(N)nc32)cc1 [Compound 2, N6-(3-Amino-phenyl)-9-[2-(4-amino-phenyl)-ethyl]-9H-purine-2,6-diamine] | 13 | 76 |  |
| COc1ccc2c(c1)c(CC(=O)O)c(C)n2C(=O)c1ccc(Cl)cc1 [indomethacin, reference compound] |  |  | reduction in the severity of arthritis (inflammatory index) ([3]; oral administration, FIG. 3): 10-40% |
| CN(Cc1cnc2nc(N)nc(N)c2n1)c1ccc(C(=O)N[C@@H](CCC(=O)O)C(=O)O)cc1 [Methotrexate, methotrexate, reference compound] |  |  | Inflammation/Ear thickness (mm), Challenge 1 [2]: 0.17 ± 0.04 mm; Inflammation/Ear thickness (mm), Challenge 2 [2]: 0.46 ± 0.17 mm; reduction in the severity of arthritis (inflammatory index) ([3]; intravenous injection, FIG. 2): 20% |
